In patent US20150031668A1, “CHROMAN DERIVATIVES AS TRPM8 INHIBITORS” (AMGEN INC., priority 2013, published 2015) one finds IC50 data, which are given here for 30 compounds.

Each structure is given as a SMILES string. Structures can show the parent of a compound that is named as a salt.

Usually IC50 stands for the concentration that inhibits the measured activity by half.

In the test the target is T1, human TRPM8 (Homo sapiens, UniProt Q7Z2W7).
T1 construct: expressed in transfected cells; host or cells: Chinese hamster ovary (CHO) cells, T-REx tetracycline-inducible expression system (Invitrogen); co-transfected with pcDNA3.1 aequorin
T1 sequence (Q7Z2W7 whole entry): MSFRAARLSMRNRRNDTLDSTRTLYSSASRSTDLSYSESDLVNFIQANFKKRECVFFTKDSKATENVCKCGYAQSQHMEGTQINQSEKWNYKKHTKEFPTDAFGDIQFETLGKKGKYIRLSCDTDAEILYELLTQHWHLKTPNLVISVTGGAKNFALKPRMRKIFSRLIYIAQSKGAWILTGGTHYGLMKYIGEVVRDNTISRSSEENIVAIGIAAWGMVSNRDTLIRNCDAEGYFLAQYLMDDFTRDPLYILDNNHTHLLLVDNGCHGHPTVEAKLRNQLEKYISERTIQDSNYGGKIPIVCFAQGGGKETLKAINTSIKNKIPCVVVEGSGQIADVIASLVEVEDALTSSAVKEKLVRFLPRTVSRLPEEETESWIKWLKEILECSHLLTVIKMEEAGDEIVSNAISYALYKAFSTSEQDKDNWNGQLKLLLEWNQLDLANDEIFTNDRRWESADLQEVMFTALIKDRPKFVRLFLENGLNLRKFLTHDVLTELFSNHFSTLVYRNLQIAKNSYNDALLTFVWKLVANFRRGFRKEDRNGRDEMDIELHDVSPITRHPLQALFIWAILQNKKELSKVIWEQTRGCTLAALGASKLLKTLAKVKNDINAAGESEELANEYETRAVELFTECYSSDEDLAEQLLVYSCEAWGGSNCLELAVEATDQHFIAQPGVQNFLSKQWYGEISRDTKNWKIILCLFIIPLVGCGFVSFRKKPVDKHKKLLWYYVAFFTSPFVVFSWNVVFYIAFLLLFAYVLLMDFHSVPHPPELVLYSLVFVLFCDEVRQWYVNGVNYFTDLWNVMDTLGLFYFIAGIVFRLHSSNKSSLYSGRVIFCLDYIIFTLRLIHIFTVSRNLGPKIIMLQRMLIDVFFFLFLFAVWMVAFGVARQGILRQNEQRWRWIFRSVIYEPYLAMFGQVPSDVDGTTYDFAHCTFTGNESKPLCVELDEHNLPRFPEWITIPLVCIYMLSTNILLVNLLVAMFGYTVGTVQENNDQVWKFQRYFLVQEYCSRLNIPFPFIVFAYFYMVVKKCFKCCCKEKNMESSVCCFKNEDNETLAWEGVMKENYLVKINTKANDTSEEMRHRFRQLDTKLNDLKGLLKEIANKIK
The test is described as follows: Luminescence readout assay for measuring intracellular calcium (aequorin, CHO cells expressing human TRPM8; icilin, L-menthol or cold activation). Type of test: cell-based. Conditions: CHO cells expressing human TRPM8, icilin activation (1 μM), aequorin luminescence; read-out: hTRPM8 IC50. The method, boiled down: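 Activation was by 1 μM icilin, 100 μM L-menthol (test compound 2.5 min ahead) or cold buffer below 10° C (compound 1 min ahead). Calcium rise measured as aequorin luminescence in CHO cells with tetracycline-inducible human TRPM8.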
Turning to `O=C(Nc1ccncn1)N[C@]1(c2ccc(OC(F)(F)F)c(F)c2)CCOc2cccnc21` [Example 89, (S)-1-(4-(3-fluoro-4-(trifluoromethoxy)phenyl)-3,4-dihydro-2H-pyrano[3,2-b]pyridin-4-yl)-3-(pyrimidin-4-yl)urea], the IC50 stood at 58 nM.
Under `O=C(N[C@]1(c2ccc(OC(F)(F)F)c(F)c2)CCOc2cccnc21)c1ccc(C(=O)O)nc1` [Example 328, (S)-5-((4-(3-fluoro-4-(trifluoro-methoxy)phenyl)-3,4-dihydro-2H-pyrano[3,2-b]pyridin-4-yl)carbamoyl) picolinic acid 2,2,2-trifluoroacetate] stands 1560 nM.
Under `Nc1ccc(-c2ccc([C@@]3(NC(=O)c4ccc(F)cc4)CCOc4cccnc43)cc2)cc1` [Example 147, (S)-N-(4-(4′-amino-[1,1′-biphenyl]-4-yl)-3,4-dihydro-2H-pyrano[3,2-b]pyridin-4-yl)-4-fluorobenzamide] stands 1530 nM; under `O=C(N[C@]1(c2ccc3ccccc3c2)CCOc2cccnc21)c1ccc(=O)[nH]c1` [Example 81, (S)-N-(4-(naphthalen-2-yl)-3,4-dihydro-2H-pyrano[3,2-b]pyridin-4-yl)-6-oxo-1,6-dihydropyridine-3-carboxamide], 124 nM; under `O=C(N[C@]1(c2ccc(C(F)(F)F)cc2)CCOc2cccnc21)c1ccc2cn[nH]c2c1` [Example 34, (S)-N-(4-(4-(trifluoromethyl)phenyl)-3,4-dihydro-2H-pyrano[3,2-b]pyridin-4-yl)-1H-indazole-6-carboxamide], 24 nM.
For `CCOC(=O)c1ncc(C(=O)N[C@]2(c3ccc(OC(F)(F)F)c(F)c3)CCOc3cccnc32)[nH]1` [Example 162] the value was 92 nM; for `O=C(N[C@]1(c2ccc(OC(F)(F)F)c(F)c2)CCOc2cccnc21)c1ccc(C(=O)C(F)(F)F)cc1` [Example 160, (S)—N-(4-(3-fluoro-4-(trifluoromethoxy)phenyl)-3,4-dihydro-2H-pyrano[3,2-b]pyridin-4-yl)-4-(2,2,2-trifluoroacetyl)benzamide 2,2,2-trifluoroacetate], 39 nM; for `O=C(N[C@]1(c2ccc(C(F)(F)F)cc2)CCOc2cccnc21)c1c[nH]c(=O)cn1` [Example 45, (S)-5-oxo-N-(4-(4-(trifluoromethyl)phenyl)-3,4-dihydro-2H-pyrano[3,2-b]pyridin-4-yl)-4,5-dihydropyrazine-2-carboxamide], 38 nM.
Consider `O=C(NC1(c2ccc(Cl)c(Cl)c2)CCOc2cccnc21)c1ccc(F)cc1` (stereo not drawn) [Example 10, N-(4-(3,4-dichlorophenyl)-3,4-dihydro-2H-pyrano[3,2-b]pyridin-4-yl)-4-fluorobenzamide], for which the IC50 is 163 nM.
For `O=C(N[C@]1(c2ccc(OC(F)(F)F)c(F)c2)CCOc2cccnc21)c1ccc(C(=O)O)c(F)c1` [Example 331, (S)-2-fluoro-4-((4-(3-fluoro-4-(trifluoromethoxy)phenyl)-3,4-dihydro-2H-pyrano[3,2-b]pyridin-4-yl)carbamoyl) benzoic acid] the value was 34 nM; for `O=C(N[C@]1(c2ccc(OC(F)(F)F)cc2)CCOc2cccnc21)c1cccc(N2CCCC2=O)c1` [Example 277, (S)-3-(2-oxopyrrolidin-1-yl)-N-(4-(4-(trifluoromethoxy)phenyl)-3,4-dihydro-2H-pyrano[3,2-b]pyridin-4-yl)benzamide formate], 85 nM; for `O=C(Nc1cccnc1)N[C@]1(c2ccc(C(F)(F)F)cc2)CCOc2cccnc21` [Example 73, (S)-1-(pyridin-3-yl)-3-(4-(4-(trifluoromethyl)phenyl)-3,4-dihydro-2H-pyrano[3,2-b]pyridin-4-yl)urea], 19 nM.
For `C[C@@H](O)Cn1cc(C(=O)N[C@]2(c3ccc(OC(F)(F)F)c(F)c3)CCOc3cccnc32)ccc1=O` [Example 202, N-((S)-4-(3-fluoro-4-(trifluoromethoxy)phenyl)-3,4-dihydro-2H-pyrano[3,2-b]pyridin-4-yl)-1-((R)-2-hydroxypropyl)-6-oxo-1,6-dihydropyridine-3-carboxamide] the value was 27 nM.
For `Cc1ccc([C@@]2(NC(=O)c3ccccc3)CCOc3cccnc32)cc1` (single isomer, unassigned) [Example 18] the value was 162 nM; for `CCOC(=O)c1cc(C(=O)N[C@]2(c3ccc(OC(F)(F)F)c(F)c3)CCOc3cccnc32)c[nH]1` [Example 187, (S)-ethyl 4-((4-(3-fluoro-4-(trifluoromethoxy)phenyl)-3,4-dihydro-2H-pyrano[3,2-b]pyridin-4-yl)carbamoyl)-1H-pyrrole-2-carboxylate], 54 nM; for `O=C(O)c1cnc(C(=O)N[C@]2(c3ccc(OC(F)(F)F)c(F)c3)CCOc3cccnc32)cn1` [Example 177, (S)-5-((4-(3-fluoro-4-(trifluoromethoxy)phenyl)-3,4-dihydro-2H-pyrano[3,2-b]pyridin-4-yl)carbamoyl) pyrazine-2-carboxylic acid], 209 nM.
Regarding `O=C(N[C@]1(c2ccc(Cl)c(Cl)c2)CCOc2cccnc21)c1ccc(=O)[nH]c1` [Example 194, (S)-N-(4-(3,4-dichlorophenyl)-3,4-dihydro-2H-pyrano[3,2-b]pyridin-4-yl)-6-oxo-1,6-dihydropyridine-3-carboxamide], the IC50 was determined as 44 nM.
For `C[C@H](NC(=O)N[C@]1(c2ccc(C(F)(F)F)cc2)CCOc2cccnc21)C(F)(F)F` [Example 67, 1-((S)-4-(4-(trifluoromethyl)phenyl)-3,4-dihydro-2H-pyrano[3,2-b]pyridin-4-yl)-3-((S)-1,1,1-trifluoropropan-2-yl)urea 2,2,2-trifluoroacetate] the value was 293 nM.
For `O=C(N[C@]1(c2ccc(OC(F)(F)F)c(F)c2)CCOc2cccnc21)c1ccco1` [Example 308, (S)—N-(4-(3-fluoro-4-(trifluoromethoxy)phenyl)-3,4-dihydro-2H-pyrano[3,2-b]pyridin-4-yl)furan-2-carboxamide] the value was 11 nM; for `O=C(N[C@]1(c2ccc(F)c(C(F)(F)F)c2)CCOc2cccnc21)c1ccc(=O)[nH]c1` [Example 185, (S)-N-(4-(4-fluoro-3-(trifluoromethyl)phenyl)-3,4-dihydro-2H-pyrano[3,2-b]pyridin-4-yl)-6-oxo-1,6-dihydropyridine-3-carboxamide], 89 nM; for `O=C(N[C@]1(c2ccc(OC(F)(F)F)cc2)CCOc2cccnc21)c1cccc2[nH]cnc12` [Example 238, (S)-N-(4-(4-(trifluoromethoxy)phenyl)-3,4-dihydro-2H-pyrano[3,2-b]pyridin-4-yl)-1H-benzo[d]imidazole-4-carboxamide formate], 41.4 nM.
For `COC(=O)c1cc2ccc(C(=O)N[C@]3(c4ccc(OC(F)(F)F)c(F)c4)CCOc4cccnc43)cc2n1C` [Example 196, (S)-methyl 6-((4-(3-fluoro-4-(trifluoromethoxy)phenyl)-3,4-dihydro-2H-pyrano[3,2-b]pyridin-4-yl)carbamoyl)-1-methyl-1H-indole-2-carboxylate] the value was 7 nM.
Regarding `O=C(O)c1ccnc(C(=O)N[C@]2(c3ccc(OC(F)(F)F)c(F)c3)CCOc3cccnc32)c1` [Example 330, (S)-2-((4-(3-fluoro-4-(trifluoro-methoxy)phenyl)-3,4-dihydro-2H-pyrano[3,2-b]pyridin-4-yl)carbamoyl) isonicotinic acid], the IC50 is 94 nM.
For `Cn1ncc2ccc(C(=O)N[C@]3(c4ccc(OC(F)(F)F)cc4)CCOc4cccnc43)cc21` [Example 263, (S)-1-methyl-N-(4-(4-(trifluoromethoxy)phenyl)-3,4-dihydro-2H-pyrano[3,2-b]pyridin-4-yl)-1H-indazole-6-carboxamide formate] the value was 95 nM; for `O=C(N[C@]1(c2ccc(OC(F)(F)F)cc2)CCOc2cccnc21)c1ccc2c(=O)[nH]ccc2c1` [Example 223, (S)-1-oxo-N-(4-(4-(trifluoromethoxy)phenyl)-3,4-dihydro-2H-pyrano[3,2-b]pyridin-4-yl)-1,2-dihydroisoquinoline-6-carboxamide formate], 10 nM; for `O=C(N[C@]1(c2ccc(OC(F)(F)F)cc2)CCOc2cccnc21)c1ccc2ccccc2n1` [Example 251, (S)-N-(4-(4-(trifluoromethoxy)phenyl)-3,4-dihydro-2H-pyrano[3,2-b]pyridin-4-yl)quinoline-2-carboxamide formate], 56 nM.
Under `N#Cc1ccc(NC(=O)N[C@]2(c3ccc(OC(F)(F)F)c(F)c3)CCOc3cccnc32)cc1` [Example 68, (S)-1-(4-cyanophenyl)-3-(4-(3-fluoro-4-(trifluoromethoxy)phenyl)-3,4-dihydro-2H-pyrano[3,2-b]pyridin-4-yl)urea] stands 23 nM; under `O=C(NS(=O)(=O)c1ccccc1)c1ccc(C(=O)N[C@]2(c3ccc(OC(F)(F)F)c(F)c3)CCOc3cccnc32)nc1` [Example 307, (S)—N2-(4-(3-fluoro-4-(trifluoromethoxy)phenyl)-3,4-dihydro-2H-pyrano[3,2-b]pyridin-4-yl)-N5-(phenylsulfonyl)pyridine-2,5-dicarboxamide 2,2,2-trifluoroacetate], 631 nM.
Turning to `O=C(N[C@]1(c2ccc(OC(F)(F)F)cc2)CCOc2cccnc21)c1ccc2ncccc2c1` [Example 253, (S)-N-(4-(4-(trifluoromethoxy)phenyl)-3,4-dihydro-2H-pyrano[3,2-b]pyridin-4-yl)quinoline-6-carboxamide formate], the IC50 is 4 nM.
Under `O=C(N[C@]1(c2ccc(-c3cccnc3)cc2)CCOc2cccnc21)c1ccc(F)cc1` [Example 115, (S)-4-fluoro-N-(4-(4-(pyridin-3-yl)phenyl)-3,4-dihydro-2H-pyrano[3,2-b]pyridin-4-yl)benzamide] stands 341 nM.
